Measurements: the NIST ThermoML archive (doi:10.1021/je700026d)

Assay: xn = mol fraction of the nth substance listed
Settings: Liquid; for speed of sound: 100 kPa, Linear variable-path acoustic interferometer; for mass density: Pycnometric method; for viscosity: Capillary tube (Ostwald / Ubbelohde) method

COCCOC [1,2-dimethoxyethane] + NC=O
298.15 K
Settings | speed of sound [m/s]
x2 = 0 | 1146.2
x2 = 0.1819 | 1200.3
x2 = 0.3334 | 1254.3
x2 = 0.4616 | 1306.2
x2 = 0.5715 | 1355
x2 = 0.6668 | 1399.9
x2 = 0.7501 | 1441.9
x2 = 0.8236 | 1480.5
x2 = 0.8889 | 1518.5
x2 = 0.9474 | 1556.1

Settings | mass density, 298.15 K [kg/m3] | mass density, 308.15 K [kg/m3] | mass density, 318.15 K [kg/m3] | viscosity, 298.15 K [mPa·s] | viscosity, 308.15 K [mPa·s] | viscosity, 318.15 K [mPa·s]
101 kPa, x2 = 0 | 861.5 | 850.7 | 839.6 | – | – | –
101 kPa, x2 = 0.1819 | 893.1 | 883.5 | 874.6 | – | – | –
101 kPa, x2 = 0.3334 | 920.1 | 910.4 | 902.6 | – | – | –
101 kPa, x2 = 0.4616 | 946 | 936.3 | 929.4 | – | – | –
101 kPa, x2 = 0.5715 | 971.8 | 962.3 | 955.9 | – | – | –
101 kPa, x2 = 0.6668 | 997.3 | 988.5 | 982.2 | – | – | –
101 kPa, x2 = 0.7501 | 1022.2 | 1013.6 | 1007.5 | – | – | –
101 kPa, x2 = 0.8236 | 1048.3 | 1039.4 | 1033.3 | – | – | –
101 kPa, x2 = 0.8889 | 1073.7 | 1065.7 | 1059.2 | – | – | –
101 kPa, x2 = 0.9474 | 1100.3 | 1092.7 | 1085.5 | – | – | –
101.3 kPa, x2 = 0 | – | – | – | 0.409 | 0.366 | 0.33
101.3 kPa, x2 = 0.1819 | – | – | – | 0.603 | 0.522 | 0.459
101.3 kPa, x2 = 0.3334 | – | – | – | 0.848 | 0.713 | 0.609
101.3 kPa, x2 = 0.4616 | – | – | – | 1.164 | 0.952 | 0.785
101.3 kPa, x2 = 0.5715 | – | – | – | 1.545 | 1.243 | 0.994
101.3 kPa, x2 = 0.6668 | – | – | – | 1.925 | 1.536 | 1.218
101.3 kPa, x2 = 0.7501 | – | – | – | 2.296 | 1.806 | 1.427
101.3 kPa, x2 = 0.8236 | – | – | – | 2.627 | 2.045 | 1.614
101.3 kPa, x2 = 0.8889 | – | – | – | 2.899 | 2.243 | 1.775
101.3 kPa, x2 = 0.9474 | – | – | – | 3.12 | 2.408 | 1.903

CC(=O)c1ccccc1 [acetophenone] + NC=O
298.15 K
Settings | speed of sound [m/s]
x2 = 0 | 1296.4
x2 = 0.2286 | 1304.8
x2 = 0.4001 | 1323.3
x2 = 0.5334 | 1345.8
x2 = 0.6401 | 1379.3
x2 = 0.7273 | 1413.6
x2 = 0.8001 | 1456.5
x2 = 0.8616 | 1488.4
x2 = 0.9143 | 1527.3
x2 = 0.96 | 1558.9

101.3 kPa
Settings | mass density, 298.15 K [kg/m3] | mass density, 308.15 K [kg/m3] | mass density, 318.15 K [kg/m3] | viscosity, 298.15 K [mPa·s] | viscosity, 308.15 K [mPa·s] | viscosity, 318.15 K [mPa·s]
x2 = 0 | 1023.1 | 1014.8 | 1007.5 | 1.653 | 1.412 | 1.117
x2 = 0.2286 | 1032.9 | 1024.9 | 1017.5 | 2.234 | 1.762 | 1.377
x2 = 0.4001 | 1042.9 | 1035.1 | 1027.5 | 2.795 | 2.077 | 1.607
x2 = 0.5334 | 1053.1 | 1045.3 | 1037.6 | 3.267 | 2.355 | 1.825
x2 = 0.6401 | 1063.3 | 1055.5 | 1047.7 | 3.596 | 2.587 | 1.988
x2 = 0.7273 | 1073.8 | 1065.8 | 1057.9 | 3.778 | 2.724 | 2.1
x2 = 0.8001 | 1084.4 | 1076.3 | 1068.2 | 3.819 | 2.779 | 2.141
x2 = 0.8616 | 1095.3 | 1087 | 1078.7 | 3.735 | 2.748 | 2.111
x2 = 0.9143 | 1106.4 | 1097.9 | 1089.4 | 3.59 | 2.685 | 2.068
x2 = 0.96 | 1117.7 | 1109.1 | 1100.1 | 3.439 | 2.608 | 2.027

NC=O [formamide] + CC#N
298.15 K
Settings | speed of sound [m/s]
x1 = 0.0919 | 1277.7
x1 = 0.1856 | 1299.6
x1 = 0.2809 | 1322.8
x1 = 0.3779 | 1349.6
x1 = 0.4768 | 1380.8
x1 = 0.5775 | 1412.8
x1 = 0.6802 | 1449
x1 = 0.7847 | 1488.8
x1 = 0.8913 | 1529.8
x1 = 1 | 1591.3

101.3 kPa
Settings | mass density, 298.15 K [kg/m3] | mass density, 308.15 K [kg/m3] | mass density, 318.15 K [kg/m3] | viscosity, 298.15 K [mPa·s] | viscosity, 308.15 K [mPa·s] | viscosity, 318.15 K [mPa·s]
x1 = 0.0919 | 803.8 | 794.9 | 785.6 | 0.402 | 0.366 | 0.339
x1 = 0.1856 | 832.8 | 824.1 | 815.8 | 0.485 | 0.432 | 0.396
x1 = 0.2809 | 863.4 | 855.1 | 847.4 | 0.593 | 0.522 | 0.472
x1 = 0.3779 | 895.8 | 887.4 | 879.9 | 0.733 | 0.635 | 0.565
x1 = 0.4768 | 929.2 | 921.2 | 914 | 0.921 | 0.786 | 0.687
x1 = 0.5775 | 965.2 | 956.6 | 950.7 | 1.168 | 0.978 | 0.847
x1 = 0.6802 | 1002.9 | 994.4 | 989.4 | 1.507 | 1.239 | 1.046
x1 = 0.7847 | 1042.6 | 1034.7 | 1029.3 | 1.945 | 1.569 | 1.295
x1 = 0.8913 | 1085.1 | 1076.9 | 1071.6 | 2.54 | 1.999 | 1.615
x1 = 1 | 1129.2 | 1120.5 | 1111.1 | 3.302 | 2.542 | 2.001

NC=O [formamide] + COCCO
298.15 K
Settings | speed of sound [m/s]
x1 = 0.1581 | 1353.6
x1 = 0.2969 | 1373.7
x1 = 0.4199 | 1397.5
x1 = 0.5297 | 1423.8
x1 = 0.6282 | 1451.1
x1 = 0.7171 | 1478.3
x1 = 0.7977 | 1506
x1 = 0.8711 | 1533.9
x1 = 0.9383 | 1564.3
x1 = 1 | 1591.3

101.3 kPa
Settings | mass density, 298.15 K [kg/m3] | mass density, 308.15 K [kg/m3] | mass density, 318.15 K [kg/m3] | viscosity, 298.15 K [mPa·s] | viscosity, 308.15 K [mPa·s] | viscosity, 318.15 K [mPa·s]
x1 = 0.1581 | 977 | 969.1 | 963.5 | 1.912 | 1.515 | 1.225
x1 = 0.2969 | 994.2 | 986.2 | 980.3 | 2.291 | 1.759 | 1.394
x1 = 0.4199 | 1010.9 | 1002.8 | 996.5 | 2.659 | 1.997 | 1.561
x1 = 0.5297 | 1027.6 | 1019.4 | 1012.8 | 2.963 | 2.206 | 1.709
x1 = 0.6282 | 1044.1 | 1035.9 | 1029.1 | 3.173 | 2.367 | 1.831
x1 = 0.7171 | 1060.2 | 1052.3 | 1045.3 | 3.331 | 2.485 | 1.929
x1 = 0.7977 | 1076.7 | 1068.7 | 1061.5 | 3.395 | 2.541 | 1.978
x1 = 0.8711 | 1093.8 | 1085.7 | 1078.1 | 3.399 | 2.562 | 2.016
x1 = 0.9383 | 1111.1 | 1102.9 | 1094.6 | 3.348 | 2.55 | 2.003
x1 = 1 | 1129.2 | 1120.5 | 1111.1 | 3.302 | 2.542 | 2.001

NC=O [formamide] + C[S+](C)[O-]
298.15 K
Settings | speed of sound [m/s]
x1 = 0.1616 | 1480.1
x1 = 0.3025 | 1480.6
x1 = 0.4264 | 1483.9
x1 = 0.5363 | 1492.3
x1 = 0.6343 | 1502.9
x1 = 0.7224 | 1512.7
x1 = 0.8019 | 1526.4
x1 = 0.874 | 1543.7
x1 = 0.9398 | 1561.2
x1 = 1 | 1591.3

101.3 kPa
Settings | mass density, 298.15 K [kg/m3] | mass density, 308.15 K [kg/m3] | mass density, 318.15 K [kg/m3] | viscosity, 298.15 K [mPa·s] | viscosity, 308.15 K [mPa·s] | viscosity, 318.15 K [mPa·s]
x1 = 0.1616 | 1099.3 | 1090.7 | 1082.7 | 2.457 | 1.859 | 1.64
x1 = 0.3025 | 1102.8 | 1094.9 | 1087.3 | 2.868 | 2.135 | 1.823
x1 = 0.4264 | 1106.3 | 1098.5 | 1090.9 | 3.214 | 2.365 | 1.968
x1 = 0.5363 | 1109.5 | 1101.6 | 1093.9 | 3.468 | 2.52 | 2.059
x1 = 0.6343 | 1112.6 | 1104.6 | 1096.7 | 3.608 | 2.621 | 2.112
x1 = 0.7224 | 1115.8 | 1107.6 | 1099.5 | 3.652 | 2.653 | 2.118
x1 = 0.8019 | 1119.1 | 1110.7 | 1102.3 | 3.626 | 2.639 | 2.083
x1 = 0.874 | 1122.5 | 1113.9 | 1105.3 | 3.54 | 2.613 | 2.054
x1 = 0.9398 | 1125.8 | 1117.2 | 1108.2 | 3.426 | 2.571 | 2.021
x1 = 1 | 1129.2 | 1120.5 | 1111.1 | 3.302 | 2.542 | 2.001
